From the supplement of paper PMC11061612

Experiments:
A375 (Melanoma) [1] = assay: Bliss excess, mean over the matrix (fraction); higher = more synergy
How it was run: (§1)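 Cell lines in DMEM/F12 or RPMI with 10% FBS were plated in 1536-well plates, held 24 hours at 37°C, 5% CO2, then given two-drug dose matrices for 72 hours (DMSO typically 0.2%). Viability was read by CellTiter-Glo 2.0 luminescence and scaled as inhibition from 0 (vehicle wells) to 1 (blank wells). Combination Emax is the second-highest inhibition in the matrix; Bliss excess is observed combination effect minus expected EA + EB − EA·EB, EA and EB being single-agent effects.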

[2] = system: ATN-1 (T-Lymphoblastic Leukemia); assay: as above
How it was run: as §1

[3] = system: BC-1 (B-Cell Non-Hodgkin's Lymphoma); assay: as above
How it was run: as §1

C32 (Melanoma) [4] = assay: as above
How it was run: as §1

[5] = system: HT-3 (Cervical Carcinoma); assay: as above
How it was run: as §1

[6] = system: IGROV-1 (Ovarian Carcinoma); assay: as above
How it was run: as §1

[7] = system: KNS-62 (Squamous Cell Lung Carcinoma); assay: as above
How it was run: as §1

[8] = system: NCI-H1435 (Non-Small Cell Lung Carcinoma); assay: as above
How it was run: as §1

[9] = system: NCI-H2023 (Non-Small Cell Lung Carcinoma); assay: as above
How it was run: as §1

[10] = system: OCI-M1 (Acute Myeloid Leukemia); assay: as above
How it was run: as §1

[11] = system: SBC-5 (Small Cell Lung Carcinoma); assay: as above
How it was run: as §1

SK-N-DZ (Neuroblastoma) = assay: as above
How it was run: as §1

A375 (Melanoma) [12] = assay: combination Emax (second highest fraction inhibited in the dose matrix, 72 h); higher = more inhibition; extreme values may be limits of the assay
How it was run: as §1

C32 (Melanoma) [13] = assay: as above
How it was run: as §1

HT-144 (Melanoma) = assay: as above
How it was run: as §1

MG-63 (Osteosarcoma) = assay: as above
How it was run: as §1

[14] = system: NCI-H2009 (Lung Adenocarcinoma); assay: as above
How it was run: as §1

[15] = system: RPMI-8402 (T-Lymphoblastic Leukemia); assay: as above
How it was run: as §1

[16] = system: SNU-1 (Gastric Carcinoma); assay: as above
How it was run: as §1

[17] = system: SUP-HD1 (Hodgkin's Lymphoma); assay: as above
How it was run: as §1
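For Bliss excess, mean over the matrix in this document: after 72 h of two-drug dosing.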

In the case of `CN(CCO)CC[C@H](CSc1ccccc1)Nc1ccc(S(=O)(=O)NC(=O)c2ccc(N3CCC([C@@H](O)c4ccccc4-c4ccc(Cl)cc4)CC3)cc2)cc1S(=O)(=O)C(F)(F)F` [AZD4320] + CN(C)CCCOc1ccc(-c2ccc3ncc4c(c3c2)n(C2CCOCC2)c(=O)n4C)cn1 [AZD0156] (first compound max 1 µM, 7x7, partner max 1 µM), the Bliss excess (A375 (Melanoma) [1]) is reported as -0.0357, the Bliss excess [2] is reported as -0.0231 and the Bliss excess [3] is reported as -0.0228. It also gave a Bliss excess (C32 (Melanoma) [4]) of -0.0182, a Bliss excess [5] of -0.0251 and a Bliss excess [6] of -0.0848. The Bliss excess [7] was -0.0566, the Bliss excess [8] was -0.0269 and the Bliss excess [9] was -0.0922. For the same molecule, the Bliss excess [10] was -0.0094, the Bliss excess [11] was -0.0481 and the Bliss excess (SK-N-DZ (Neuroblastoma)) was 0.0238. The “combination Emax” value (A375 (Melanoma) [12]) was 0.129, the “combination Emax” value (C32 (Melanoma) [13]) was 0.284 and the “combination Emax” value (HT-144 (Melanoma)) was 0.219. The “combination Emax” value (MG-63 (Osteosarcoma)) was 0.136, the “combination Emax” value [14] was 0.0839 and the “combination Emax” value [15] was 0.903. For the same molecule, the “combination Emax” value [16] was 0.397 and the “combination Emax” value [17] was 0.961.
With `Cc1c2c(nn1C)CSCc1cc(n(C)n1)CSc1cc(c3ccccc3c1)OCCCc1c(C(=O)O)n(C)c3c-2c(Cl)ccc13` [AZD5991] + Cc1cc2ncnn2cc1Nc1ncc2c(n1)n(C1CCOCC1)c(=O)n2C [AZD7648] (first compound max 1 µM, 7x7, partner max 10 µM) the Bliss excess (A375 (Melanoma) [1]) was -0.0244, the Bliss excess [2] was -0.0513 and the Bliss excess [3] was 0.0172. It also gave a Bliss excess (C32 (Melanoma) [4]) of -0.0308, a Bliss excess [5] of -0.0173 and a Bliss excess [6] of -0.103. For the same molecule, the Bliss excess [7] was 0.0266, the Bliss excess [8] was -0.0055 and the Bliss excess [9] was -0.0423. The Bliss excess [10] was -0.001, the Bliss excess [11] was -0.0447 and the Bliss excess (SK-N-DZ (Neuroblastoma)) was -0.0564. For the same molecule, the “combination Emax” value (A375 (Melanoma) [12]) was 0.331, the “combination Emax” value (C32 (Melanoma) [13]) was 0.198 and the “combination Emax” value (HT-144 (Melanoma)) was 0.885. For the same molecule, the “combination Emax” value (MG-63 (Osteosarcoma)) was 0.329, the “combination Emax” value [14] was 0.147 and the “combination Emax” value [15] was 0.836. The “combination Emax” value [16] was 0.485 and the “combination Emax” value [17] was 0.576.
In the case of `CN(CCO)CC[C@H](CSc1ccccc1)Nc1ccc(S(=O)(=O)NC(=O)c2ccc(N3CCC([C@@H](O)c4ccccc4-c4ccc(Cl)cc4)CC3)cc2)cc1S(=O)(=O)C(F)(F)F` [AZD4320] + C=CCn1c(=O)c2cnc(Nc3ccc(N4CCN(C)CC4)cc3)nc2n1-c1cccc(C(C)(C)O)n1 [AZD1775] (first compound max 1 µM, partner max 1 µM), the Bliss excess (A375 (Melanoma) [1]) is reported as 0.0133, the Bliss excess [2] is reported as 0.0695 and the Bliss excess [3] is reported as 0.0386. It also gave a Bliss excess (C32 (Melanoma) [4]) of 0.108, a Bliss excess [5] of -0.0296 and a Bliss excess [6] of 0.0505. For the same molecule, the Bliss excess [7] was -0.0543, the Bliss excess [8] was 0.0482 and the Bliss excess [9] was -0.0108. It also gave a Bliss excess [10] of 0.0479, a Bliss excess [11] of 0.0264 and a Bliss excess (SK-N-DZ (Neuroblastoma)) of 0.0351. For the same molecule, the “combination Emax” value (A375 (Melanoma) [12]) was 0.749, the “combination Emax” value (C32 (Melanoma) [13]) was 0.639 and the “combination Emax” value (HT-144 (Melanoma)) was 0.654. The “combination Emax” value (MG-63 (Osteosarcoma)) was 0.266, the “combination Emax” value [14] was 0.764 and the “combination Emax” value [15] was 1. For the same molecule, the “combination Emax” value [16] was 0.929 and the “combination Emax” value [17] was 0.952.
Molecule `COc1cccc(OCCCN)c1-c1cc(Nc2cnc(C#N)cn2)n[nH]1` [Prexasertib] + Cc1cc2ncnn2cc1Nc1ncc2c(n1)n(C1CCOCC1)c(=O)n2C [AZD7648] (first compound max 1 µM, 7x7, partner max 10 µM) has a Bliss excess (A375 (Melanoma) [1]) of 0.0029, a Bliss excess [2] of 0.0136 and a Bliss excess [3] of -0.0239. It also gave a Bliss excess (C32 (Melanoma) [4]) of -0.004, a Bliss excess [5] of -0.0098 and a Bliss excess [6] of -0.0264. For the same molecule, the Bliss excess [7] was -0.0225, the Bliss excess [8] was 0.0115 and the Bliss excess [9] was -0.027. For the same molecule, the Bliss excess [10] was -0.0483, the Bliss excess [11] was -0.0116 and the Bliss excess (SK-N-DZ (Neuroblastoma)) was -0.0049. For the same molecule, the “combination Emax” value (A375 (Melanoma) [12]) was 0.877, the “combination Emax” value (C32 (Melanoma) [13]) was 0.753 and the “combination Emax” value (HT-144 (Melanoma)) was 0.72. The “combination Emax” value (MG-63 (Osteosarcoma)) was 0.921, the “combination Emax” value [14] was 0.45 and the “combination Emax” value [15] was 1. The “combination Emax” value [16] was 0.84 and the “combination Emax” value [17] was 0.89.
